From the supplement of paper PMC10307832

Key:
Assay in all cases: relative viability (nuclei count vs DMSO), 5 days (fraction); higher = more cells survive
201T = test system: 201T
Procedure, shortened: (§1)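 Relative viability divides the nuclei count in treated wells by that in vehicle wells. Lung cancer cell lines were seeded in 1536-well plates, dosed by pin tool the next day, and fixed and stained after 5 days in one step with final 0.05% Triton X-100, 1% formaldehyde and 1 ug/ml Hoechst. Dosing was a single drug or a fixed anchor-drug dose plus five library-drug doses (not always all listed) in √10 steps, and values are medians of duplicate plates imaged at 4×.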

BEN = test system: BEN
Procedure, shortened: as §1

CAL-12T = test system: CAL-12T
Procedure, shortened: as §1

HCC-44 = test system: HCC-44
Procedure, shortened: as §1

HCC-827 = test system: HCC-827
Procedure, shortened: as §1

HOP-62 = test system: HOP-62
Procedure, shortened: as §1

LCLC-97TM1 = test system: LCLC-97TM1
Procedure, shortened: as §1

LXF-289 = test system: LXF-289
Procedure, shortened: as §1

NCI-H1395 = test system: NCI-H1395
Procedure, shortened: as §1

NCI-H1437 = test system: NCI-H1437
Procedure, shortened: as §1

NCI-H1650 = test system: NCI-H1650
Procedure, shortened: as §1

NCI-H1793 = test system: NCI-H1793
Procedure, shortened: as §1

NCI-H1944 = test system: NCI-H1944
Procedure, shortened: as §1

NCI-H2087 = test system: NCI-H2087
Procedure, shortened: as §1

NCI-H2228 = test system: NCI-H2228
Procedure, shortened: as §1

NCI-H2405 = test system: NCI-H2405
Procedure, shortened: as §1

NCI-H3122 = test system: NCI-H3122
Procedure, shortened: as §1

NCI-H322M = test system: NCI-H322M
Procedure, shortened: as §1

NCI-H647 = test system: NCI-H647
Procedure, shortened: as §1

NCI-H727 = test system: NCI-H727
Procedure, shortened: as §1

RERF-LC-KJ = test system: RERF-LC-KJ
Procedure, shortened: as §1

SK-LU-1 = test system: SK-LU-1
Procedure, shortened: as §1

SMILES: NC(=O)Nc1cc(-c2cccc(F)c2)sc1C(=O)N[C@H]1CCCNC1 [AZD7762] + CC1(C)CCC(c2ccc(Cl)cc2)=C(CN2CCN(c3ccc(C(=O)NS(=O)(=O)c4ccc(N[C@H](CCN5CCOCC5)CSc5ccccc5)c(S(=O)(=O)C(F)(F)F)c4)cc3)CC2)C1 [Navitoclax] (partner 0.5 µM)
- relative viability (201T; first compound 0.01 µM): 1.18
- relative viability (201T; first compound 0.03162 µM): 1.23
- relative viability (201T; first compound 0.1 µM): 1.21
- relative viability (201T; first compound 0.3162 µM): 1.25
- relative viability (201T; first compound 1 µM): 1.27
- relative viability (BEN; first compound 0.01 µM): 0.0635
- relative viability (BEN; first compound 0.03162 µM): 0.0616
- relative viability (BEN; first compound 0.1 µM): 0.0641
- relative viability (BEN; first compound 0.3162 µM): 0.0656
- relative viability (BEN; first compound 1 µM): 0.0695
- relative viability (CAL-12T; first compound 0.01 µM): 1.23
- relative viability (CAL-12T; first compound 0.03162 µM): 1.18
- relative viability (CAL-12T; first compound 0.1 µM): 1.24
- relative viability (CAL-12T; first compound 0.3162 µM): 1.09
- relative viability (CAL-12T; first compound 1 µM): 0.169
- relative viability (HCC-44; first compound 0.01 µM): 1.1
- relative viability (HCC-44; first compound 0.03162 µM): 0.933
- relative viability (HCC-44; first compound 0.1 µM): 1.01
- relative viability (HCC-44; first compound 0.3162 µM): 0.901
- relative viability (HCC-44; first compound 1 µM): 1.01
- relative viability (HCC-827; first compound 0.01 µM): 1
- relative viability (HCC-827; first compound 0.03162 µM): 0.918
- relative viability (HCC-827; first compound 0.1 µM): 0.991
- relative viability (HCC-827; first compound 0.3162 µM): 0.94
- relative viability (HCC-827; first compound 1 µM): 0.93
- relative viability (HOP-62; first compound 0.01 µM): 1.2
- relative viability (HOP-62; first compound 0.03162 µM): 1.03
- relative viability (HOP-62; first compound 0.1 µM): 1.19
- relative viability (HOP-62; first compound 0.3162 µM): 1.16
- relative viability (HOP-62; first compound 1 µM): 0.969
- relative viability (LCLC-97TM1; first compound 0.01 µM): 0.343
- relative viability (LCLC-97TM1; first compound 0.03162 µM): 0.517
- relative viability (LCLC-97TM1; first compound 0.1 µM): 0.51
- relative viability (LCLC-97TM1; first compound 0.3162 µM): 0.457
- relative viability (LCLC-97TM1; first compound 1 µM): 0.237
- relative viability (LXF-289; first compound 0.01 µM): 0.943
- relative viability (LXF-289; first compound 0.03162 µM): 0.962
- relative viability (LXF-289; first compound 0.1 µM): 0.949
- relative viability (LXF-289; first compound 0.3162 µM): 1
- relative viability (LXF-289; first compound 1 µM): 1.03
- relative viability (NCI-H1395; first compound 0.01 µM): 1.27
- relative viability (NCI-H1395; first compound 0.03162 µM): 1.66
- relative viability (NCI-H1395; first compound 0.1 µM): 1.41
- relative viability (NCI-H1395; first compound 0.3162 µM): 0.634
- relative viability (NCI-H1395; first compound 1 µM): 0.408
- relative viability (NCI-H1437; first compound 0.01 µM): 1.09
- relative viability (NCI-H1437; first compound 0.03162 µM): 1.04
- relative viability (NCI-H1437; first compound 0.1 µM): 1.07
- relative viability (NCI-H1437; first compound 0.3162 µM): 1.08
- relative viability (NCI-H1437; first compound 1 µM): 1.05
- relative viability (NCI-H1650; first compound 0.01 µM): 1.33
- relative viability (NCI-H1650; first compound 0.03162 µM): 1.42
- relative viability (NCI-H1650; first compound 0.1 µM): 1.22
- relative viability (NCI-H1650; first compound 0.3162 µM): 0.917
- relative viability (NCI-H1650; first compound 1 µM): 0.327
- relative viability (NCI-H1793; first compound 0.01 µM): 0.437
- relative viability (NCI-H1793; first compound 0.03162 µM): 0.645
- relative viability (NCI-H1793; first compound 0.1 µM): 0.476
- relative viability (NCI-H1793; first compound 0.3162 µM): 0.368
- relative viability (NCI-H1793; first compound 1 µM): 0.211
- relative viability (NCI-H1944; first compound 0.01 µM): 1.06
- relative viability (NCI-H1944; first compound 0.03162 µM): 1.14
- relative viability (NCI-H1944; first compound 0.1 µM): 1.1
- relative viability (NCI-H1944; first compound 0.3162 µM): 1.12
- relative viability (NCI-H1944; first compound 1 µM): 0.816
- relative viability (NCI-H2087; first compound 0.01 µM): 1.13
- relative viability (NCI-H2087; first compound 0.03162 µM): 1
- relative viability (NCI-H2087; first compound 0.1 µM): 1.27
- relative viability (NCI-H2087; first compound 0.3162 µM): 1.17
- relative viability (NCI-H2087; first compound 1 µM): 1.28
- relative viability (NCI-H2228; first compound 0.01 µM): 1
- relative viability (NCI-H2228; first compound 0.03162 µM): 0.552
- relative viability (NCI-H2228; first compound 0.1 µM): 1
- relative viability (NCI-H2228; first compound 0.3162 µM): 0.666
- relative viability (NCI-H2228; first compound 1 µM): 0.354
- relative viability (NCI-H2405; first compound 0.01 µM): 0.812
- relative viability (NCI-H2405; first compound 0.03162 µM): 0.925
- relative viability (NCI-H2405; first compound 0.1 µM): 0.873
- relative viability (NCI-H2405; first compound 0.3162 µM): 0.675
- relative viability (NCI-H2405; first compound 1 µM): 0.244
- relative viability (NCI-H3122; first compound 0.01 µM): 0.97
- relative viability (NCI-H3122; first compound 0.03162 µM): 1.03
- relative viability (NCI-H3122; first compound 0.1 µM): 1.01
- relative viability (NCI-H3122; first compound 0.3162 µM): 0.995
- relative viability (NCI-H3122; first compound 1 µM): 1.05
- relative viability (NCI-H322M; first compound 0.01 µM): 1.14
- relative viability (NCI-H322M; first compound 0.03162 µM): 1.33
- relative viability (NCI-H322M; first compound 0.1 µM): 1.29
- relative viability (NCI-H322M; first compound 0.3162 µM): 1.22
- relative viability (NCI-H322M; first compound 1 µM): 1.03
- relative viability (NCI-H647; first compound 0.01 µM): 1.33
- relative viability (NCI-H647; first compound 0.03162 µM): 1.08
- relative viability (NCI-H647; first compound 0.1 µM): 0.969
- relative viability (NCI-H647; first compound 0.3162 µM): 0.858
- relative viability (NCI-H647; first compound 1 µM): 0.277
- relative viability (NCI-H727; first compound 0.01 µM): 0.456
- relative viability (NCI-H727; first compound 0.03162 µM): 0.54
- relative viability (NCI-H727; first compound 0.1 µM): 0.397
- relative viability (NCI-H727; first compound 0.3162 µM): 0.318
- relative viability (NCI-H727; first compound 1 µM): 0.111
- relative viability (RERF-LC-KJ; first compound 0.01 µM): 1.15
- relative viability (RERF-LC-KJ; first compound 0.03162 µM): 0.913
- relative viability (RERF-LC-KJ; first compound 0.1 µM): 1.12
- relative viability (RERF-LC-KJ; first compound 0.3162 µM): 1.21
- relative viability (RERF-LC-KJ; first compound 1 µM): 0.878
- relative viability (SK-LU-1; first compound 0.01 µM): 0.895
- relative viability (SK-LU-1; first compound 0.03162 µM): 0.649
- relative viability (SK-LU-1; first compound 0.1 µM): 0.251
- relative viability (SK-LU-1; first compound 0.3162 µM): 0.103
- relative viability (SK-LU-1; first compound 1 µM): 0.138
